Source: PMC6522510 (Nature Communications, 2019)
Read-outs that look alike come from different tables or passages of the source.

Key:
Assay in all cases: Secondary dose-response HTS, Cell Titer Glo; call rule not given here
Type in all cases: cell-based, human
MOLM-13 = details: MOLM-13
CHRF288-11 = system: CHRF288-11
CMK = details: CMK
U937 = system: U937
M07e = system: M07e
CMS = system: CMS
MV4-11 = details: MV4-11
ML2 = details: ML-2
[1] = Homo sapiens, secondary HTS, 72 h, average of triplicate, read-out: EC50 MOLM-13
[2] = Homo sapiens, secondary HTS, 72 h, average of triplicate, read-out: EC50 CHRF288-11
[3] = Homo sapiens, secondary HTS, 72 h, average of triplicate, read-out: EC50 CMK
[4] = Homo sapiens, U-937, secondary HTS, 72 h, average of triplicate, read-out: EC50 U937
[5] = Homo sapiens, M-07e, secondary HTS, 72 h, average of triplicate, read-out: EC50 M07e
[6] = Homo sapiens, secondary HTS, 72 h, average of triplicate, read-out: EC50 CMS
[7] = Homo sapiens, secondary HTS, 72 h, average of triplicate, read-out: EC50 MV4-11
[8] = Homo sapiens, secondary HTS, 72 h, average of triplicate, read-out: EC50 ML2
[9] = secondary high-throughput screen, read-out: average effective concentration, MOLM-13
[10] = secondary high-throughput screen, CHRF288-11
[11] = secondary high-throughput screen
[12] = secondary high-throughput screen, U937
[13] = secondary high-throughput screen, M07e
[14] = secondary high-throughput screen, CMS
[15] = secondary high-throughput screen, CHRF288-11, read-out: average effective concentration, CHRF288-11
[16] = secondary high-throughput screen, U937, read-out: average effective concentration, U937
[17] = secondary high-throughput screen, M07e, read-out: average effective concentration, M07e
[18] = secondary high-throughput screen, CMS, read-out: average effective concentration, CMS
[19] = secondary high-throughput screen, read-out: average effective concentration, ML-2
[20] = Homo sapiens, HTS, secondary high-throughput screen, CMS, read-out: average effective concentration, CMS
[21] = Homo sapiens, M-07e, secondary high-throughput screen, M07e, read-out: average effective concentration, M07e
[22] = Homo sapiens, secondary high-throughput screen, read-out: average effective concentration, MOLM-13
[23] = Homo sapiens, HTS, secondary high-throughput screen, CHRF288-11, read-out: average effective concentration, CHRF288-11
[24] = Homo sapiens, secondary high-throughput screen, read-out: average effective concentration, CMK
[25] = Homo sapiens, U-937, secondary high-throughput screen, U937, read-out: average effective concentration, U937
[26] = Homo sapiens, secondary high-throughput screen, read-out: average effective concentration, MV4-11
[27] = Homo sapiens, secondary high-throughput screen, read-out: average effective concentration, ML-2

## CC(C)=CCC[C@]1(C)C=Cc2c(O)c3c(c(CC=C(C)C)c2O1)O[C@]12C(=C[C@@H]4C[C@H]1C(C)(C)O[C@@]2(C/C=C(/C)C(=O)O)C4=O)C3=O [Gambogic acid, reference compound]
MOLM-13; [1]
  EC50: 190 nM
CHRF288-11; [2]
  EC50: 220 nM
CMK; [3]
  EC50: 360 nM
U937; [4]
  EC50: 190 nM
M07e; [5]
  EC50: 240 nM
CMS; [6]
  EC50: 260 nM
MV4-11; [7]
  EC50: 170 nM
ML2; [8]
  EC50: 150 nM

## O=[N+]([O-])c1c(Nc2cc(F)cc(Cl)c2)ccc2nonc12 [HIF-C2]
MOLM-13; [9]
  EC50: 13 nM
CHRF288-11; [10]
  average effective concentration, CHRF288-11: Inactive
CMK; [11]
  average effective concentration, CMK: Inactive
U937; [12]
  average effective concentration, U937: Inactive
M07e; [13]
  average effective concentration, M07e: Inactive
CMS; [14]
  average effective concentration, CMS: Inactive
MV4-11; [11]
  average effective concentration, MV4-11: Inactive
ML2; [11]
  average effective concentration, ML-2: Inactive

## O=C1c2ccccc2-c2nc3nnnn3nc21.O=C1c2ccccc2-c2nn3nnnc3nc21 [KP-372-1]
MOLM-13; [11]
  average effective concentration, MOLM-13: Inactive
CHRF288-11; [15]
  EC50: 38 nM
CMK; secondary high-throughput screen, read-out: average effective concentration, CMK
  EC50: 24 nM
U937; [16]
  EC50: 10 nM
M07e; [17]
  EC50: 53 nM
CMS; [18]
  EC50: 31 nM
MV4-11; [11]
  average effective concentration, MV4-11: Inactive
ML2; [19]
  EC50: 6 nM

## C[C@@H]1CN(CC(=O)Nc2ccc3c(c2)Cc2cccc(-c4cc(=O)cc(N5CCOCC5)o4)c2S3)C[C@H](C)O1 [KU60019]
MOLM-13; [11]
  average effective concentration, MOLM-13: Inactive
CHRF288-11; [10]
  average effective concentration, CHRF288-11: Inactive
CMK; [11]
  average effective concentration, CMK: Inactive
U937; [12]
  average effective concentration, U937: Inactive
M07e; [13]
  average effective concentration, M07e: Inactive
CMS; [20]
  EC50: > 10000 nM
MV4-11; [11]
  average effective concentration, MV4-11: Inactive
ML2; [11]
  average effective concentration, ML-2: Inactive

## C[N+](C)(C)[C@@H](Cc1c[nH]c(=S)[nH]1)C(=O)[O-] [L-(+)-ERGOTHIONEINE]
MOLM-13; [11]
  average effective concentration, MOLM-13: Inactive
CHRF288-11; [10]
  average effective concentration, CHRF288-11: Inactive
CMK; [11]
  average effective concentration, CMK: Inactive
U937; [12]
  average effective concentration, U937: Inactive
M07e; [17]
  EC50: 3200 nM
CMS; [14]
  average effective concentration, CMS: Inactive
MV4-11; [11]
  average effective concentration, MV4-11: Inactive
ML2; [11]
  average effective concentration, ML-2: Inactive

## Cn1c(/C=C/C(=O)NO)ccc1/C=C/C(=O)c1cccc(F)c1 [MC1568]
MOLM-13; [11]
  average effective concentration, MOLM-13: Inactive
CHRF288-11; [15]
  EC50: 4900 nM
CMK; [11]
  average effective concentration, CMK: Inactive
U937; [16]
  EC50: 3400 nM
M07e; [17]
  EC50: 460 nM
CMS; [14]
  average effective concentration, CMS: Inactive
MV4-11; [11]
  average effective concentration, MV4-11: Inactive
ML2; [19]
  EC50: 4300 nM

## CCOC(=O)c1cc2ccccc2nc1C [MC-1626]
MOLM-13; [11]
  average effective concentration, MOLM-13: Inactive
CHRF288-11; [10]
  average effective concentration, CHRF288-11: Inactive
CMK; [11]
  average effective concentration, CMK: Inactive
U937; [12]
  average effective concentration, U937: Inactive
M07e; [13]
  average effective concentration, M07e: Inactive
CMS; [14]
  average effective concentration, CMS: Inactive
MV4-11; [11]
  average effective concentration, MV4-11: Inactive
ML2; [11]
  average effective concentration, ML-2: Inactive

## CC12CC3CC(C)(C1)CC(N)(C3)C2 [MEMANTINE]
MOLM-13; [11]
  average effective concentration, MOLM-13: Inactive
CHRF288-11; [10]
  average effective concentration, CHRF288-11: Inactive
CMK; [11]
  average effective concentration, CMK: Inactive
U937; [12]
  average effective concentration, U937: Inactive
M07e; [21]
  EC50: > 10000 nM
CMS; [14]
  average effective concentration, CMS: Inactive
MV4-11; [11]
  average effective concentration, MV4-11: Inactive
ML2; [11]
  average effective concentration, ML-2: Inactive

## CN(C)c1ccc2nc3ccc(=[N+](C)C)cc-3sc2c1 [METHYLENE BLUE]
MOLM-13; [22]
  EC50: 2000 nM
CHRF288-11; [23]
  EC50: 6200 nM
CMK; [24]
  EC50: 3400 nM
U937; [25]
  EC50: 10000 nM
M07e; [21]
  EC50: > 10000 nM
CMS; [20]
  EC50: > 10000 nM
MV4-11; [26]
  EC50: 1300 nM
ML2; [27]
  EC50: 5900 nM

## CO[C@@]12[C@H](COC(N)=O)C3=C(C(=O)C(C)=C(N)C3=O)N1C[C@@H]1N[C@@H]12 [MITOMYCIN C]
MOLM-13; [22]
  EC50: 2800 nM
CHRF288-11; [23]
  EC50: 750 nM
CMK; [24]
  EC50: 770 nM
U937; [25]
  EC50: 4400 nM
M07e; [21]
  EC50: 9400 nM
CMS; [20]
  EC50: 10000 nM
MV4-11; [26]
  EC50: 4100 nM
ML2; [27]
  EC50: 2400 nM

## O=C1c2c(O)ccc(O)c2C(=O)c2c(NCCNCCO)ccc(NCCNCCO)c21 [Mitoxantrone, reference compound]
MOLM-13; [1]
  EC50: 10 nM
CHRF288-11; [2]
  EC50: 20 nM
CMK; [3]
  EC50: 40 nM
U937; [4]
  EC50: 30 nM
M07e; [5]
  EC50: 30 nM
CMS; [6]
  EC50: 80 nM
MV4-11; [7]
  EC50: 1 nM
ML2; [8]
  EC50: 240 nM

## Cc1ccc(S(=O)(=O)n2c(N)nc3ccccc32)cc1 [NODINITIB-1]
MOLM-13; [11]
  average effective concentration, MOLM-13: Inactive
CHRF288-11; [10]
  average effective concentration, CHRF288-11: Inactive
CMK; [11]
  average effective concentration, CMK: Inactive
U937; [12]
  average effective concentration, U937: Inactive
M07e; [13]
  average effective concentration, M07e: Inactive
CMS; [14]
  average effective concentration, CMS: Inactive
MV4-11; [11]
  average effective concentration, MV4-11: Inactive
ML2; [11]
  average effective concentration, ML-2: Inactive

## O=c1cc(N2CCOCC2)oc2c1ccc1ccccc12 [NU 7026]
MOLM-13; [11]
  average effective concentration, MOLM-13: Inactive
CHRF288-11; [10]
  average effective concentration, CHRF288-11: Inactive
CMK; [11]
  average effective concentration, CMK: Inactive
U937; [12]
  average effective concentration, U937: Inactive
M07e; [13]
  average effective concentration, M07e: Inactive
CMS; [14]
  average effective concentration, CMS: Inactive
MV4-11; [11]
  average effective concentration, MV4-11: Inactive
ML2; [11]
  average effective concentration, ML-2: Inactive

## CC(C)(CCc1ccccc1)C(=O)Nc1ccc(C(=O)NO)cc1 [OSU-HDAC-44]
MOLM-13; [9]
  EC50: 1300 nM
CHRF288-11; [15]
  EC50: 1500 nM
CMK; [11]
  average effective concentration, CMK: Inactive
U937; [16]
  EC50: 490 nM
M07e; [17]
  EC50: 350 nM
CMS; [18]
  EC50: 480 nM
MV4-11; secondary high-throughput screen, read-out: average effective concentration, MV4-11
  EC50: 290 nM
ML2; [19]
  EC50: 1400 nM

## COC[C@H](NC(=O)c1cnc(C)s1)C(=O)N[C@@H](COC)C(=O)N[C@@H](Cc1ccccc1)C(=O)[C@@]1(C)CO1 [Oprozomib, reference compound]
MOLM-13; [1]
  EC50: 10 nM
CHRF288-11; [23]
  EC50: 25 nM
CHRF288-11; [2]
  EC50: 30 nM
CMK; [3]
  EC50: 10 nM
CMK; [24]
  EC50: 7.6 nM
U937; [4]
  EC50: 10 nM
U937; [25]
  EC50: 11 nM
M07e; [5]
  EC50: 10 nM
CMS; [6]
  EC50: 1 nM
MV4-11; [7]
  EC50: 10 nM
ML2; [8]
  EC50: 10 nM
ML2; [27]
  EC50: 5 nM
